Assay results taken from patent US10016378B2, “Compositions and methods for inhibiting intimal hyperplasia” (priority 2014, dated 2018).
Entries after “also recorded” stand apart in the source; their conditions may differ.

Legend:
human vascular SMCs = test: Cultured human vascular SMCs, PDGF stimulation / staurosporine apoptosis induction; type: cell-based; conditions: VDAC closure/inhibition
Text: Proliferation and apoptosis leveled off after twenty eight (28) days when there was also no further progression of myointimal disease (FIGS. 1c, 1e). […] Human vascular SMCs were isolated from fresh hMA and characterized (Extended Data FIGS. 4e-4f). PDGF was then shown to induce ΔΨm hyperpolarization in cultured SMCs (Extended Data FIG. 4g), similar to the ΔΨm hyperpolarization previous observed in injured hMAs (FIG. 1f). Thus, mitochondrial ΔΨm hyperpolarization in myointimal SMCs and cultured SMCs coincided with the availability of PDGF.

[1] = test system: balloon-injured rat aortas; test: Balloon injury (abdominal aortic denudation) of Lewis rat aortas; type: in vivo, Lewis rats
Method: For example, abdominal aortic denudation in Lewis rats was performed to induce neointimal proliferation. […] The development of intimal hyperplasia was analyzed by histopathology. Confocal immunofluorescence microscopy and 3-dimensional reconstruction was performed to identify cell proliferation (Ki67) and apoptosis (TUNEL).

[2] = Side-effects in the various in vivo models

For `O=S(=O)(O)c1cc(N=C=S)ccc1C=Cc1ccc(N=C=S)cc1S(=O)(=O)O` [DIDS], the “SMC ΔΨm” value (human vascular SMCs) was “caused ΔΨm hyperpolarization; also recorded: increased” and the apoptosis (human vascular SMCs; staurosporine-induced) was “rendered SMCs resistant; also recorded: reduced”.

For `O=C(O)C(Cl)Cl` [DCA, dichloroacetate], the “luminal obliteration (intimal hyperplasia)” value ([1]; DCA treatment for 28 days via drinking water (0.75 g/L), p=0.006 vs. untreated 28-day control (24.2±3.5%)) was 7.9±6.3%, the “luminal obliteration (neointimal formation)” value ([1]; delayed DCA treatment starting on day 14, p=0.001 vs. untreated 28-day control) was 3.5±2.9% and the vessel re-endothelialization ([1]; in vivo, after mechanical endothelial denudation) was “does not impair; also recorded: did not prevent vessel re-endothelialization; also recorded: nor inhibited vessel re-endothelialization”. For the same molecule, the “side-effects or off-target effects” value [2] was “didn't show any side-effects or off-target effects”.

In the case of `Cc1ccc(NC(=O)c2ccc(CN3CCN(C)CC3)cc2)cc1Nc1nccc(-c2cccnc2)n1` [imatinib], the myointimal lesions ([1]; compared to untreated control 28 vessels) is reported as “only minor lesions”.
